Data reported in patent US10004786B2 (Zealand Pharma A/S, priority 2009, dated 2018).
Numbered stars: 1 amine (or outer) side, 2 acyl side, 3 side chain; on linkers, the order of the positions; unused ones are H or OH. Square brackets hold non-standard residues; d marks the D form. Side chains are listed from the residue outwards. Peptide text beside a SMILES is read from it. * marks the point of attachment. γGlu = O=C(O)[C@H](CCC(=O)[*:2])N[*:1]; Palmitoyl = CCCCCCCCCCCCCCCC(=O)*; Aib = CC(C)(N)C(=O)O

What was measured:
human Glucagon-R = biological target: T1, human Glucagon-R (Homo sapiens, UniProt P47871); assay: Glucagon receptor efficacy assay (cAMP formation in HEK293 cells expressing human Glucagon-R); assay type: cell-based; settings: Table 1a, HEK293 cells expressing hGlucagonR, read-out: EC50 (nM) GluR
T1 construct: expressed in transfected cells
T1 sequence (P47871 26-477): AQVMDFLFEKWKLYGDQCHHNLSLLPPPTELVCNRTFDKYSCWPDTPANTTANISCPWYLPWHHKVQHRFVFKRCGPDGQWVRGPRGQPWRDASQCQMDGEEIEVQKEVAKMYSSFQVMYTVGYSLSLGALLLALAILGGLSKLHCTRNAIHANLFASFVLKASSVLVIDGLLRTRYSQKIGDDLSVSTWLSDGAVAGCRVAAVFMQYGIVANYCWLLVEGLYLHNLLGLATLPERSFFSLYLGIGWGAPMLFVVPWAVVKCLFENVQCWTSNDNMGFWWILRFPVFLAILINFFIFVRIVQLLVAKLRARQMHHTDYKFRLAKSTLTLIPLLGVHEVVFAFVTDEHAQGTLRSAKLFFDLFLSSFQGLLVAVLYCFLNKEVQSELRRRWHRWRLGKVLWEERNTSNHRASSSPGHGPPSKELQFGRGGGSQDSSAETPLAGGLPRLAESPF
Procedure: The 5′-end primers additionally encoded a near Kozak consensus sequence to ensure efficient translation.
48 hr after transfection cells were seeded for limited dilution cloning and selected with 1 mg/ml G418 in the culture medium.
On the day of analysis, growth medium was removed and the cells washed once with 200 μl Tyrode buffer. […] The reaction was stopped by addition of 25 μl 0.5 M HCl and incubated on ice for 60 min. The cAMP content was estimated using the FlashPlate® cAMP kit from Perkin-Elmer.
Efficacy of the GluGLP-1 agonists were estimated by exposing cells expressing hGlucagonR and hGLP-1R to the listed acylated compounds at increasing concentrations and measuring the formed cAMP as described in Methods.

GluR = biological target: T2, GluR (Homo sapiens, UniProt P47871); assay: Hepatocyt cAMP formation (primary human hepatocyts); assay type: cell-based
T2 construct: Primary human hepatocyts provided by Lonza Walkersvill, Inc; host or cells: primary human hepatocytes
T2 sequence (P47871 26-477): as above
Procedure: Primary human hepatocyts provided by Lonza Walkersvill, Inc. were carefully washed in TB buffer and incubated at 37° C. with peptides dissolved in TB buffer supplemented with 100 μM IBMX and 0.1% casein for 15 minutes. Prior to addition to the cells, the peptide dilutions were pre-warmed to 37° C. The reaction was stopped by addition of 25 μl of ice cold 0.5 M HCl, and the cells were incubated on ice for 60 min. The cAMP content in the wells was determined by adding 25 μl of the acid extracts from the wells to 75 μl sodium acetate buffer, pH 6.2, in 96-well microtiter “FlashPlates” coated with scintillant and anti-cAMP antibodies.
The amount of cAMP produced by the cells was calculated by extrapolation to a cAMP standard curve.
EC50 values were estimated by fitting the cAMP data to the below formula using Sigma Plot: […]

[1] = Body weight gain in high fat fed C57BL/6J mice (10 days); assay type: in vivo; settings: short term high fat-fed C57BL/6J mice
Procedure: C57Bl/6J male mice, 6 weeks old, were acclimatized in their new environment for 4 weeks with free access to high fat diet (HFD) (D12492, Research Diet Inc., New Brunswick, USA) and water. The animals were injected s.c. with 100 μl vehicle for a period of three days to acclimatize the animals to handling and injections, prior to initiation of peptide treatment. […] Throughout the study, body weights were recorded daily and used to administer the body weight-corrected doses of peptide. All animals were sacrificed on the same day by cervical dislocation.
C57Bl/6J male mice on high fat diet (HFD) were treated (b.i.d.; s.c.) (0.5 and 5 nmol/kg) or vehicle. Body weights were recorded daily and used to administer the body weight-corrected doses of peptide throughout the study. Data are shown as mean±SEM in FIG. 7.

[2] = Food intake in young lean and old obese C57BL/6J mice; assay type: in vivo; settings: s.c. at t=0 h and t=12 h, p<0.05 versus vehicle
Procedure: C57BL/6J mice were on a high fat diet for 11 days and C57BL/6J mice were on a high fat diet for 52 weeks.
3 days before study, the mice were transferred to individual cages and weighed. 4 days before study, they were acclimatized to handling and treatment by daily s.c. injections. On the day before the experiment food was removed at 20:00. […] Immediately after treatment (t=0), pre-weighed food were introduced to the mice and the cumulative food intake was measured by weighing the remaining food after t=1, 2, 4, 8, 12 and 24 hours. After weighing the food and the animals at t=24 h, the mice were sacrificed by cervical dislocation.
Immediately after treatment (t=0), pre-weighed food were introduced to the mice and the cumulative food intake was measured by weighing the remaining food after t=1, 2, 4, 8, 12 and 24 hours.

[3] = Liver weight/body weight of C57BL/6J mice treated for 2 weeks; assay type: in vivo; settings: 5 nmol/kg twice daily s.c.
Procedure: Mice were treated twice daily s.c. with Cpd. 1 and Cpd. 11 (at two doses: 0.5 and 5 nmol/kg) or vehicle for 2 weeks. Throughout the study, body weights were recorded daily and used to administer the body weight-corrected doses of peptide. On the day of sacrifice, the liver was exposed, and weighed.

[4] = Pharmacokinetic screening in mouse plasma after subcutaneous administration; assay type: in vivo; settings: sc, mice, 100 nmol/kg s.c., * = only two time points used for calculation
Procedure: Mice were dosed 100 nmol/kg subcutaneously (s.c.). The mice were sacrificed and the blood collected at the following time points; 0.5, 2, 4, 6, 16 and 24 h. Plasma samples were analyzed using protein precipitation, followed by solid phase extraction (SPE) and liquid chromatography mass spectrometry (LC-MS).
Pharmacokinetic profiles were determined for various acylated compounds.

CCCCCCCCCCCCCCCC(=O)NCCCC(=O)NCCCC[C@H](NC(=O)[C@H](CO)NC(=O)[C@H](CC(=O)O)NC(=O)[C@H](CC(C)C)NC(=O)[C@H](Cc1ccc(O)cc1)NC(=O)[C@H](CCCCN)NC(=O)[C@H](CO)NC(=O)[C@H](Cc1ccc(O)cc1)NC(=O)[C@H](CC(=O)O)NC(=O)[C@H](CO)NC(=O)[C@@H](NC(=O)[C@H](Cc1ccccc1)NC(=O)[C@@H](NC(=O)CNC(=O)[C@H](CCC(N)=O)NC(=O)C(C)(C)NC(=O)[C@@H](N)Cc1c[nH]cn1)[C@@H](C)O)[C@@H](C)O)C(=O)N[C@@H](C)C(=O)N[C@@H](C)C(=O)N[C@@H](Cc1c[nH]cn1)C(=O)N[C@@H](CC(=O)O)C(=O)N[C@@H](Cc1ccccc1)C(=O)N[C@H](C(=O)N[C@@H](CCC(=O)O)C(=O)N[C@@H](Cc1c[nH]c2ccccc12)C(=O)N[C@@H](CC(C)C)C(=O)N[C@@H](CC(C)C)C(=O)N[C@@H](CO)C(=O)N[C@@H](C)C(N)=O)C(C)C [Compound 27]
EC50 (human Glucagon-R): 0.147 nM

CCCCCCCCCCCCCCCC(=O)N[C@@H](CCC(=O)NCCCC[C@H](NC(=O)[C@H](C)NC(=O)[C@H](C)NC(=O)[C@H](CCCCN)NC(=O)[C@H](CO)NC(=O)[C@H](CC(=O)O)NC(=O)[C@H](CC(C)C)NC(=O)[C@H](Cc1ccc(O)cc1)NC(=O)[C@H](CCCCN)NC(=O)[C@H](CO)NC(=O)[C@H](Cc1ccc(O)cc1)NC(=O)[C@H](CC(=O)O)NC(=O)[C@H](CO)NC(=O)[C@@H](NC(=O)[C@H](Cc1ccccc1)NC(=O)[C@@H](NC(=O)CNC(=O)[C@H](CCC(N)=O)NC(=O)C(C)(C)NC(=O)[C@@H](N)Cc1c[nH]cn1)[C@@H](C)O)[C@@H](C)O)C(=O)N[C@@H](CC(=O)O)C(=O)N[C@@H](Cc1ccccc1)C(=O)N[C@H](C(=O)N[C@@H](CCC(=O)O)C(=O)N[C@@H](Cc1c[nH]c2ccccc12)C(=O)N[C@@H](CC(C)C)C(=O)N[C@@H](CC(C)C)C(=O)N[C@@H](CO)C(=O)N[C@@H](C)C(N)=O)C(C)C)C(=O)O [Compound 35] (H-H[Aib]QGTFTSDYSKYLDSKAAK([γGlu-Palmitoyl])DFVEWLLSA-NH2)
EC50 (human Glucagon-R): 0.18 nM

CCCCCCCCCCCCCCCC(=O)N[C@@H](CCC(=O)NCCCC[C@H](NC(=O)[C@H](CC(C)C)NC(=O)[C@H](CC(C)C)NC(=O)[C@H](Cc1c[nH]c2ccccc12)NC(=O)[C@H](CCC(=O)O)NC(=O)[C@@H](NC(=O)[C@H](Cc1ccccc1)NC(=O)[C@H](CC(=O)O)NC(=O)[C@H](Cc1c[nH]cn1)NC(=O)[C@H](C)NC(=O)[C@H](C)NC(=O)[C@H](CCCCN)NC(=O)[C@H](CO)NC(=O)[C@H](CC(=O)O)NC(=O)[C@H](CC(C)C)NC(=O)[C@H](Cc1ccc(O)cc1)NC(=O)[C@H](CCCCN)NC(=O)[C@H](CO)NC(=O)[C@H](Cc1ccc(O)cc1)NC(=O)[C@H](CC(=O)O)NC(=O)[C@H](CO)NC(=O)[C@@H](NC(=O)[C@H](Cc1ccccc1)NC(=O)[C@@H](NC(=O)CNC(=O)[C@H](CCC(N)=O)NC(=O)C(C)(C)NC(=O)[C@@H](N)Cc1c[nH]cn1)[C@@H](C)O)[C@@H](C)O)C(C)C)C(=O)N[C@@H](C)C(N)=O)C(=O)O [Compound 37] (H-H[Aib]QGTFTSDYSKYLDSKAAHDFVEWLLK([γGlu-Palmitoyl])A-NH2)
EC50 (human Glucagon-R): 0.147 nM

CCCCCCCCCCCCCCCC(=O)N[C@@H](CCC(=O)NCCCC[C@H](NC(=O)[C@H](CO)NC(=O)[C@H](CC(=O)O)NC(=O)[C@H](CC(C)C)NC(=O)[C@H](Cc1ccc(O)cc1)NC(=O)[C@H](CCCCN)NC(=O)[C@H](CO)NC(=O)[C@H](Cc1ccc(O)cc1)NC(=O)[C@H](CC(=O)O)NC(=O)[C@H](CO)NC(=O)[C@@H](NC(=O)[C@H](Cc1ccccc1)NC(=O)[C@@H](NC(=O)CNC(=O)[C@H](CCC(N)=O)NC(=O)C(C)(C)NC(=O)[C@@H](N)Cc1c[nH]cn1)[C@@H](C)O)[C@@H](C)O)C(=O)N[C@@H](C)C(=O)N[C@@H](C)C(=O)N[C@@H](CCC(=O)O)C(=O)N[C@@H](CC(=O)O)C(=O)N[C@@H](Cc1ccccc1)C(=O)N[C@H](C(=O)N[C@@H](CCC(=O)O)C(=O)N[C@@H](Cc1c[nH]c2ccccc12)C(=O)N[C@@H](CC(C)C)C(=O)N[C@@H](CC(C)C)C(=O)N[C@@H](CO)C(=O)N[C@@H](C)C(N)=O)C(C)C)C(=O)O [Compound 42] (H-H[Aib]QGTFTSDYSKYLDSK([γGlu-Palmitoyl])AAEDFVEWLLSA-NH2)
EC50 (human Glucagon-R): 0.27 nM

CCCCCCCCCCCCCCCC(=O)N[C@@H](CCC(=O)NCCCC[C@H](NC(=O)[C@H](CO)NC(=O)[C@H](CC(=O)O)NC(=O)[C@H](CC(C)C)NC(=O)[C@H](Cc1ccc(O)cc1)NC(=O)[C@H](CCCCN)NC(=O)[C@H](CO)NC(=O)[C@H](Cc1ccc(O)cc1)NC(=O)[C@H](CC(=O)O)NC(=O)[C@H](CO)NC(=O)[C@@H](NC(=O)[C@H](Cc1ccccc1)NC(=O)[C@@H](NC(=O)CNC(=O)[C@H](CCC(N)=O)NC(=O)C(C)(C)NC(=O)[C@@H](N)Cc1c[nH]cn1)[C@@H](C)O)[C@@H](C)O)C(=O)N[C@@H](C)C(=O)N[C@@H](C)C(=O)N[C@@H](Cc1c[nH]cn1)C(=O)N[C@@H](CC(=O)O)C(=O)N[C@@H](Cc1ccccc1)C(=O)N[C@H](C(=O)N[C@@H](CCC(=O)O)C(=O)N[C@@H](Cc1c[nH]c2ccccc12)C(=O)N[C@@H](CC(C)C)C(=O)N[C@@H](CC(C)C)C(=O)N[C@@H](CCC(=O)O)C(=O)N[C@@H](C)C(N)=O)C(C)C)C(=O)O [Compound 43] (H-H[Aib]QGTFTSDYSKYLDSK([γGlu-Palmitoyl])AAHDFVEWLLEA-NH2)
EC50 (human Glucagon-R): 0.12 nM

CCCCCCCCCCCCCCCC(=O)N[C@@H](CCC(=O)NCCCC[C@H](NC(=O)[C@H](C)NC(=O)[C@H](C)NC(=O)[C@H](CCC(N)=O)NC(=O)CNC(=O)[C@H](CCC(=O)O)NC(=O)[C@H](CC(C)C)NC(=O)[C@H](Cc1ccc(O)cc1)NC(=O)[C@H](CO)NC(=O)[C@H](CO)NC(=O)[C@@H](NC(=O)[C@H](CC(=O)O)NC(=O)[C@H](CO)NC(=O)[C@@H](NC(=O)[C@H](Cc1ccccc1)NC(=O)[C@@H](NC(=O)CNC(=O)[C@H](CCC(=O)O)NC(=O)[C@H](C)NC(=O)[C@@H](N)Cc1cnc[nH]1)[C@@H](C)O)[C@@H](C)O)C(C)C)C(=O)N[C@@H](CCC(=O)O)C(=O)N[C@@H](Cc1ccccc1)C(=O)N[C@H](C(=O)N[C@@H](C)C(=O)N[C@@H](Cc1c[nH]c2ccccc12)C(=O)N[C@@H](CC(C)C)C(=O)N[C@H](C(=O)N[C@@H](CCCNC(=N)N)C(=O)NCC(=O)N[C@@H](CCCNC(=N)N)C(=O)NCC(=O)O)C(C)C)[C@@H](C)CC)C(=O)O [Liraglutide]
GluR EC50 (nM) (1) (GluR; experiment (1)): ∞ | GluR EC50 (nM) (2) (GluR; experiment (2)): ∞ | GluR EC50 (nM) (log avg) (GluR; log average of (1) and (2)): ∞

Exendin-4 [reference compound]
body weight gain, low dose ([1]; 0.5 nmol/kg b.i.d. s.c.): significantly decreased body weight gain at both doses | body weight gain, high dose ([1]; 5 nmol/kg b.i.d. s.c.): significantly decreased body weight gain at both doses | food intake, old obese mice ([2]; high fat diet for 52 weeks): reduced food intake in all time periods | food intake, young lean mice ([2]; high fat diet for 11 days): reduced food intake during the 0-2, 0-4, 0-8, 0-12 and 0-24 time periods

H-HSQGTFTSDYSKYLDSKAAHDFVEWLLRA-NH2 [Compound 1]
liver weight/body weight ratio, high dose [3]: significantly increased | half-life [4]: 13.8 min
